US20120315254A1, “METHODS AND COMPOSITIONS FOR ENHANCING FAT GRAFT SURVIVAL” (Sebana Medical Ltd., priority 2010, published 2012)

Experiments:
[1] = system: human umbilical vein endothelial cells (HUVECs); experiment: In vitro tube formation of HUVECs on matrigel; assay type: cell-based
Protocol: The in vitro angiogenic potential of VEGF and EPO was measured by assessment of their ability to form tubes of endothelial cells on matrigel. To this end, human umbilical vein endothelial cells (HUVECs, LONZA, USA) were first cultured on fibronectin-coated 6-well plates in endothelial basal medium-2 (EBM-2, PromoCell, USA) until confluence and then the cells were treated with 0, 20 or 100 IU/ml EPO for 48 hours before their use in the assay (FIG. 7A). In a second experiment (FIG. 7B), HUVECs were exposed to 0, 100 IU/ml EPO or 200 ng/ml VEGF for 48 hours in EBM-2 with or without 0.25 mg/ml bevacizumab (Avastin®, Genentech, San Francisco, Calif., USA), a humanized monoclonal antibody that antagonizes the actions of VEGF. After 48 hours, the untreated HUVECs, the VEGF- and EPO-treated HUVECs, and the VEGF+bevacizumab- and EPO+bevacizumab-treated HUVECs were detached gently by 0.5% trypsin/EDTA, and then suspended in EBM-2. At the same time, frozen matrigel (Sigma Aldrich, St Louis Mo., USA) was thawed, and spread onto 96-well plates ([…]) at room temperature for 30 minutes to allow solidification. […] After 24 hours, the non-integrated cells were removed by washing and tube formation on the matrigel was assessed under a light microscope at 10× magnification. […]

[2] = system: human umbilical vein endothelial cells (HUVECs); experiment: HUVEC proliferation ([3H]-thymidine incorporation); assay type: cell-based; settings: inhibitor exposure for 3 hours, without EPO
Protocol: To investigate EPO-induced angiogenesis through mechanisms involving pro-angiogenic factors, the present inventor measured the proliferation of EPO-treated HUVECs in the presence of various pro-angiogenic factor inhibitors. To this end, HUVECs (2×10^5 cells/well) were cultured on fibronectin-coated 12-well plates in EBM-2. The cultured HUVECs were treated with or without 100 IU/ml EPO for 48 hours, and then exposed for 3 hours to (a) 0.25 mg/ml bevacizumab, (b) 100 nM of PD173074; an inhibitor of bFGF (Calbiochem, San Diego, Calif.), (c) 20 μM of tyrphostin AG 1296; a selective inhibitor of PDGF (Sigma), (d) a combination of bevacizumab, PD173074 and tyrphostin, and to (e) 100 nM wortmannin; a phosphatidylinositol 3-kinaz (PI 3-K) inhibitor (Sigma). Upon the completion of the experiment, the cells were washed with PBS and then incubated with 1 μCi/ml medium [^3H]-thymidine (NEN, Boston, Mass., USA) for 5 h at 37° C. Thereafter, 0.5 ml cold 10% Trichloroacetic acid (TCA) was added into each well for another 30 min at 4° C. To extract the ^3H-thymidine labeled DNA, 0.5 ml 1N NaOH was added to each well for 10 min at room temperature, and then 0.5 ml 1N HCl was added and mixed well. Samples of mixture solution (0.5 ml) was taken from each well and added to scintillation vials for the measurement of [^3H]-thymidine incorporation to DNA (cpm/mg protein). Duplicate cell counts were averaged for 3 experiments. Data were expressed as the percentage of control.

human fat grafts [3] = experiment: Histological analysis of the dissected fat grafts (grades 0 to 5); assay type: in vivo, CD-1 nude mice; settings: grade on a scale of 0 to 5; VEGF 200 ng/100 μl PBS; week 15
Protocol: The first study comprised 30 seven-week-old female CD-1 nude mice (Harlan, Jerusalem, Israel). These mice were housed in cages in a room with an artificial 12-h light/dark cycle at a constant temperature range (24±2° C.) and relative humidity (55±10%). The mice were acclimated for one week prior to the study, and fed a standard laboratory chow and water ad libitum. The 30 mice were randomly divided into three equal groups and treated as follows: Group 1 mice were injected with 1 ml of human fat and were treated with sterile PBS (control group). Group 2 mice were injected with 1 ml human fat and were treated with 1000 IU/kg EPO (low-dose EPO group). Group 3 mice were injected with 1 ml human fat and were treated with 5000 IU/kg EPO (high-dose EPO group). The fat was injected subcutaneously into the scalp using a 14G needle while the animals were manually restrained. Immediately following fat transplantation, the PBS-treated fat grafts were injected with 100 μl PBS (control group), and the EPO-treated fat grafts were injected with either 20 IU EPO/100 μl PBS (low-dose EPO group) or 100 IU EPO/100 μl PBS (high-dose EPO group) every three days for 18 days (a total of 6 injections). EPO was purchased as an injection ampoule (ARANESP®, Amgen AG, Zug, Switzerland) which contained 150 μg/ml (18,000 IU) of EPO.
The second animal study comprised 20 seven-week-old female CD-1 nude mice, and differed from the first study in that the fat was treated with VEGF (2 μg/ml, Sigma Aldrich, Mo., USA) following implantation. 10 mice were injected with fat followed by 200 ng VEGF/100 μl PBS injections every three days for a total of 18 days. The remaining 10 mice made up a second control group that was treated in an identical manner to the control group in the first study. Post-operative analgesics and antibiotics were not administered to the mice in the two experiments.
(§1) Histological slides of the formalin-maintained samples were prepared and then stained with hematoxylin and eosin using standard procedures. Immunohistochemistry was performed using rabbit monoclonal antibodies against tissue CD31, VEGFR-2 and EPOR, and goat polyclonal IgG against VEGF (R&D Systems, Minneapolis Minn., USA), and CD68 (Dako, Glostrup, Denmark). The paraffin-embedded fat graft sections were incubated with the antibodies overnight at room temperature followed by incubation with appropriate secondary antibodies [Li et al. (2005) J Cell Biochem 95: 559-570]. Upon completion of the incubations, the specimens were counterstained with hematoxylin. Mouse IgG was used as a negative control. […]

[4] = system: CD31-positive endothelial cells; experiment: Microvascular density (MVD, CD31) in fat grafts; assay type: in vivo, CD-1 nude mice
Protocol: Quantification of macrophage infiltration in the fat grafts was estimated by counting the number of CD68-positive cells in five fields per fat graft in all fat graft sections. Microvascular density (MVD) in fat grafts was determined in five regions of interest where the CD31 antibody signal was the most intense in each section in all of the fat graft sections. The number of macrophages and blood vessels in each region was counted under a light microscope at 400× magnification. The assessment in each fat graft was made by calculating the mean result in two different sections per fat graft and five different fields of view per section.
The paraffin-embedded fat graft sections were incubated overnight at room temperature with a monoclonal antibody against tissue CD31 (R&D Systems, Minneapolis Minn., USA) as previously described [Li et al. (2005) J Cell Biochem 95:559-570]. Upon completion of the incubation, the specimens were counterstained with hematoxylin. Mouse IgG was used as a negative control. The microvascular density (MVD) was determined in five regions of interest where the CD31 antibody signal was most intense. The number of blood vessels in each region was counted under a light microscope at […] magnification.

VEGF = experiment: Plasma VEGF concentration and fat graft VEGF content (ELISA); assay type: in vivo, CD-1 nude mice; settings: VEGF-treated (200 ng/100 μl PBS) vs PBS-treated fat grafts; week 15
Protocol: (§2) The first study comprised 30 seven-week-old female CD-1 nude mice (Harlan, Jerusalem, Israel). These mice were housed in cages in a room with an artificial 12-h light/dark cycle at a constant temperature range (24±2° C.) and relative humidity (55±10%). The mice were acclimated for one week prior to the study, and fed a standard laboratory chow and water ad libitum. The 30 mice were randomly divided into three equal groups and treated as follows: Group 1 mice were injected with 1 ml of human fat and were treated with sterile PBS (control group). Group 2 mice were injected with 1 ml human fat and were treated with 1000 IU/kg EPO (low-dose EPO group). […]
The duration of the study period of both experiments was 15 weeks from the start of fat transplantation. […] VEGF and EPO concentrations were determined in homogenates of samples of the fat grafts using commercial enzyme-linked immunosorbent assays (Quantikine® VEGF immunoassay Kit and Quantikine® WD® Erythropoietin Kit, R&D Systems, MN, USA) in accordance with the manufacturer's instructions.
(§3) After 15 weeks, all mice were humanely killed and the fat grafts were carefully dissected from their scalps (FIG. 1C). Each fat graft was weighed and the volume of the fat graft was measured by the liquid overflow method as previously described [Ayhan et al. (2001) Aesthetic Plast Surg 25:338-342]. […]

human fat grafts [5] = experiment: Fat graft weight and volume 15 weeks after transplantation; assay type: in vivo, CD-1 nude mice; settings: VEGF 200 ng/100 μl PBS every three days for 18 days; week 15; second experiment
Source text: Fat was harvested from the thigh of a person by suction-assisted lipectomy under […] anesthesia. The fat was aspirated under local anesthesia using a 14-gauge blunt cannula, and then processed under sterile conditions for subsequent grafting into nude mice within two hours of its collection according to previously published protocols [Ullmann et al. (2005) Dermatol Surg 31:1304-7; Kurita et al. (2008) Plast Reconstr Surg 121:1033-1041].
as §2, §3

[6] = system: bFGF, IGF-1, PDGF-BB, VEGFR-2, EPOR, MMP-2, PKB, phosphoPKB, caspase 3, cytochrome c; experiment: Expression of angiogenic, survival and pro-apoptotic factors in fat grafts (Western blotting, immunohistochemistry); assay type: in vivo, CD-1 nude mice; settings: VEGF-treated vs PBS-treated fat grafts, Western blot; week 15
Protocol: as §1
The expression levels of the angiogenic factors, bFGF, IGF-1, PDGF-BB VEGFR-2, EPOR and MMP-2, the cell survival factor PKB and phosphorylated PKB, and the pro-apoptotic factors caspase 3 and cytochrome c were determined in homogenates of the harvested fats grafts by Western blotting. […] The resultant bands were quantified by densitometry.

human fat grafts [7] = experiment: Extent of apoptosis in fat grafts (TUNEL assay); assay type: in vivo, CD-1 nude mice; settings: VEGF-treated (200 ng/100 μl PBS) vs PBS-treated fat grafts; week 15
Protocol: The extent of apoptosis in all fat grafts was assessed by the terminal deoxyuridine triphosphate nick end labeling (TUNEL) assay using a commercial kit (ApopTag® Plus Fluorescein Kit, CHEMICON, CA, USA), in accordance with the manufacturer's instructions. Duplicates were carried out for each sample and were processed by fluorescence-activated cell sorting (FACS, Becton Dickinson, N.J., USA). Data was analyzed using the Macintosh CELLQuest software program (Becton Dickinson).

For bevacizumab [reference compound], which HUVEC tube formation ([1]; 0.25 mg/ml bevacizumab in VEGF-treated HUVECs) is on record?
The HUVEC tube formation was “substantially reduced”.

What about the HUVEC proliferation [2] of the same compound?
The HUVEC proliferation was “reduced HUVEC proliferation significantly”.

“vascular endothelial growth factor [VEGF]” was tested. Which Cyst/Vacuoles (human fat grafts [3]) did it give?
Its Cyst/Vacuoles is 3.3 ± 1.0.

What about the Fibrosis (human fat grafts [3]) of the same compound?
The Fibrosis was 2.9 ± 0.7.

And the Inflammation (human fat grafts [3])?
The Inflammation was 4.0 ± 1.2.

What about the Integration (human fat grafts [3]) of the same compound?
The Integration was 3.2 ± 0.9.

And the “microvascular density (MVD)” value ([4]; VEGF-treated (200 ng/100 μl PBS) vs PBS-treated fat grafts, week 15)?
The value was “higher than, but not statistically different from”.

And the “vessel morphology in fat grafts” value ([4]; VEGF-treated fat grafts (data not shown))?
The value was “unorganized vessel formation and perivascular hemorrhage”.

And the HUVEC tube formation ([1]; 200 ng/ml VEGF, without bevacizumab (FIG. 7B))?
Its HUVEC tube formation is “significantly enhanced”.

What about the “VEGF content in fat grafts” value (VEGF) of the same compound?
The value was “higher than, but not statistically different from”.

And the “fat graft Volume” value (human fat grafts [5])?
The value was 0.36 ± 0.2 mL.

What about the “fat graft Weight” value (human fat grafts [5]) of the same compound?
The value was 0.35 ± 0.2 g.

And the “expression levels of caspase 3 and cytochrome c” value [6]?
Its value is “no statistical differences”.

And the “extent of apoptosis (TUNEL)” value (human fat grafts [7])?
The value was “greater than that in the PBS-treated fat grafts”.

With tyrphostin AG 1296 as the compound, how does the HUVEC proliferation [2] read?
Its HUVEC proliferation is “reduced HUVEC proliferation significantly”.

How did the HUVEC proliferation [2] turn out when CCN(CC)CCCCNc1ncc2cc(-c3cc(OC)cc(OC)c3)c(NC(=O)NC(C)(C)C)nc2n1 [PD173074] was run?
The HUVEC proliferation was “reduced HUVEC proliferation significantly”.
